Measurements published in the supplement of paper PMC10949913.

Legend:
Conditions in all cases: 48 h
CU-ACC2 [1] = assay: AC50 viability; higher = less potent
Procedure, shortened: (§1)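 Three adrenocortical carcinoma cell lines were seeded at 500–1,000 cells/well in 5 µL medium in 1,536-well plates. 23 nL of each MIPE 5.0 library compound was added at 11 concentrations. After 48 h (per the protocol name), CellTiter-Glo was added for 15 minutes at room temperature and luminescence was read. Signals were normalised per plate to vehicle and empty-well controls. AC50 and area under the curve came from fitted concentration-response curves, keeping only inhibitory or non-responding curve classes.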

NCI-H295R [2] = assay: AC50 viability; higher = less potent
Procedure, shortened: as §1

CU-ACC1 [3] = assay: area under concentration-response curve (viability) (AUC (a.u.)); higher = less active
Procedure, shortened: as §1

CU-ACC2 [4] = assay: as above
Procedure, shortened: as §1

NCI-H295R [5] = assay: as above
Procedure, shortened: as §1

CU-ACC1 [6] = assay: AC50 viability; higher = less potent
Procedure, shortened: as §1

Row | Compound | AC50 viability (CU-ACC2 [1]) | AC50 viability (NCI-H295R [2]) | area under concentration-response curve (CU-ACC1 [3]) | area under concentration-response curve (CU-ACC2 [4]) | area under concentration-response curve (NCI-H295R [5]) | AC50 viability (CU-ACC1 [6])
1 | CCN(CC)CCNc1ccc(C)c2sc3ccccc3c(=O)c12 | 20.9 µM | 20.9 µM | 447 | 489 | 456 | 
2 | CC(O)c1cc(C(=O)N[C@@H](C)Cn2ccc(-c3ccc(C#N)c(Cl)c3)n2)n[nH]1 (some centres not stated) | 20.9 µM |  | 454 | 488 |  | 33.2 µM
3 | Cc1cnc(Nc2ccc(F)cc2Cl)nc1-c1c[nH]c(C(=O)N[C@H](CO)c2cccc(Cl)c2)c1 | 18.6 µM | 26.3 µM | 500 | 572 | 532 | 
4 | COc1ccc(-c2ccc3ncc4c(c3c2)n(-c2ccc(N3CCNCC3)c(C(F)(F)F)c2)c(=O)n4C)cn1 | 1.86 µM | 1.05 µM | 376 | 385 | 330 | 
5 | Nc1nc(N)c(N=O)c(OCC2CCCCC2)n1 | 20.9 µM | 9.34 µM | 466 | 492 | 451 | 
6 | N=C(NCCCCCCNC(=N)NC(=N)Nc1ccc(Cl)cc1)NC(=N)Nc1ccc(Cl)cc1 | 23.5 µM | 14.8 µM | 511 | 573 | 443 | 
7 | CCC[C@@H](C=O)NC(=O)[C@H](CC(C)C)NC(=O)[C@H](CC(C)C)NC(=O)OCc1ccccc1 | 1.48 µM | 1.18 µM | 417 | 438 | 439 | 
8 | O=C1Nc2cc(Br)ccc2/C1=C1/Nc2ccccc2/C1=N\O | 18.6 µM | 23.5 µM | 480 | 515 | 511 | 
9 | CC(=O)O[C@@]12CO[C@@H]1C[C@H](O)[C@@]1(C)C(=O)[C@H](O)C3=C(C)[C@@H](OC(=O)[C@H](O)[C@@H](NC(=O)OC(C)(C)C)c4ccccc4)C[C@@](O)([C@@H](OC(=O)c4ccccc4)[C@H]21)C3(C)C | 20.9 µM | 0.417 µM | 302 | 334 | 270 | 
10 | COC1=CC(c2cc3ccccc3[nH]2)=N/C1=C/c1[nH]c(C)cc1C | 33.2 µM |  | 410 | 495 |  | 37.2 µM
11 | Cc1cc(Nc2nc(N[C@@H](C)c3ccc(F)cc3)c(C#N)cc2F)n[nH]1 | 20.9 µM |  | 516 | 467 |  | 18.6 µM
12 | c1ccc2c(-c3cnn4cc(-c5ccc(N6CCNCC6)cc5)cnc34)ccnc2c1 | 2.95 µM | 2.09 µM | 434 | 498 | 439 | 
13 | C=C1C(=O)[C@@]23C(CC[C@@H]1[C@H]2O)[C@@]12CO[C@]3(O)[C@@H](O)[C@@H]1C(C)(C)CC[C@@H]2O (some centres not stated) | 11.8 µM | 18.6 µM | 486 | 551 | 529 | 
14 | CC[P](CC)(CC)=[Au][S][C@@H]1O[C@H](COC(C)=O)[C@@H](OC(C)=O)[C@H](OC(C)=O)[C@H]1OC(C)=O | 1.86 µM | 2.09 µM | 439 | 445 | 400 | 
